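Assay format: 96-well plates, 48-hour exposure. At the TGI there is no net growth.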
Key:
Test in all cases: NCI-60 cell line screen, 48 h
A498 renal = tested on: A498 renal
EKVX NSCLC = tested on: EKVX NSCLC
HCT-15 colon = tested on: HCT-15 colon
K-562 leukemia = tested on: K-562 leukemia
KM12 colon = tested on: KM12 colon
OVCAR-5 ovarian = tested on: OVCAR-5 ovarian
SK-MEL-28 melanoma = tested on: SK-MEL-28 melanoma
UACC-257 melanoma = tested on: UACC-257 melanoma
HS 578T breast = tested on: HS 578T breast
MOLT-4 leukemia = tested on: MOLT-4 leukemia

SMILES	TGI (A498 renal)	TGI (EKVX NSCLC)	TGI (HCT-15 colon)	TGI (K-562 leukemia)	TGI (KM12 colon)	TGI (OVCAR-5 ovarian)	TGI (SK-MEL-28 melanoma)	TGI (UACC-257 melanoma)	TGI (HS 578T breast)	TGI (MOLT-4 leukemia)
OCC(O)COc1ccc(Br)cc1 (stereo not drawn)	> 100 µM	> 100 µM	> 100 µM	> 100 µM	> 100 µM	> 100 µM	> 100 µM	> 100 µM	–	–
COc1cc2c(cc1OC)C(=O)N(c1ccc(O)cc1)C2	> 100 µM	> 100 µM	> 100 µM	> 100 µM	–	> 100 µM	> 100 µM	> 100 µM	> 100 µM	> 100 µM
Nc1c(Br)cc(-c2cc(Br)c(N)c(Br)c2)cc1Br	–	> 100 µM	–	> 100 µM	> 100 µM	> 100 µM	> 100 µM	> 100 µM	> 100 µM	> 100 µM
COc1ccc(C2SCC(=O)N2N=C2NC(=O)CC(=O)N2)cc1 (stereo not drawn)	> 100 µM	–	> 100 µM	> 100 µM	> 100 µM	> 100 µM	> 100 µM	> 100 µM	> 100 µM	> 100 µM
CC(=O)N[C@@H](Cc1ccc(O)cn1)C(=O)NCc1cccc(F)c1	> 100 µM	> 100 µM	> 100 µM	> 100 µM	> 100 µM	> 100 µM	> 100 µM	> 100 µM	> 100 µM	–
CN(NC(=O)c1ccco1)C1=NCCCCN1	–	> 100 µM	> 100 µM	> 100 µM	> 100 µM	> 100 µM	> 100 µM	> 100 µM	> 100 µM	> 100 µM
O=C(NCCNCCO)N/N=C/c1cccc([N+](=O)[O-])c1	> 100 µM	–	> 100 µM	> 100 µM	> 100 µM	> 100 µM	> 100 µM	> 100 µM	–	> 100 µM
COC(=O)C(=O)C(C(=O)C(=O)Nc1ccccc1C(=O)OC)c1nc2ccc(C(=O)c3ccccc3)cc2[nH]c1=O (stereo not drawn)	> 100 µM	> 100 µM	> 100 µM	> 100 µM	> 100 µM	> 100 µM	> 100 µM	> 100 µM	> 100 µM	–
CCOC(=O)c1nc2c3c(ncn2n1)Oc1c(c(-c2ccccc2)nn1-c1ccccc1)C3c1ccc(OC)c(OC)c1 (stereo not drawn)	–	> 100 µM	> 100 µM	> 100 µM	–	> 100 µM	> 100 µM	> 100 µM	38 µM	> 100 µM
N#Cc1c(-c2ccco2)c2c(n(C3OC(CO)C(O)C(O)C3O)c1=S)CCCC2 (stereo not drawn)	> 100 µM	> 100 µM	> 100 µM	–	> 100 µM	> 100 µM	> 100 µM	> 100 µM	> 100 µM	> 100 µM
CS(=O)(=O)NNS(=O)(=O)c1ccc(Br)cc1	> 100 µM	> 100 µM	> 100 µM	> 100 µM	–	> 100 µM	> 100 µM	> 100 µM	–	–

From PubChem BioAssay (NCI)
